{"source": "patent US8252832B2", "about": "“Kinesin inhibitors as cancer therapeutics” (Novartis AG, priority 2007, dated 2012)", "key": {"[1]": {"system": "KMS-11-luc disseminated disease", "assay": "KMS-11-luc disseminated disease model, tumor response and survival", "type": "in vivo, mouse", "procedure": "Experiments were performed using immunodeficient SCID-Beige female mice approximately 7-8 weeks old (Charles River Laboratories, Wilmington, Mass.). […] Routine animal care and assurance of welfare were as described above.\nHuman KMS-11-luc multiple myeloma cells were obtained from the laboratory of Suzanne Trudel at the University of Toronto (Ontario, Canada) and tested to be free of Mycoplasma sp. and murine viruses in the IMPACT1 PCR assay panel (RADIL, University of Missouri, Columbia, Mo.). Prior to our receiving this cell line, it had been stably engineered to express luciferase by retroviral transfection of the pGC-gfp/luc vector. KMS-11-luc cells were grown in Iscove's medium supplemented with 2 mmol/L L-glutamine (Mediatech, Inc., Hemdon, Va.) and 10% fetal bovine serum (JRH Biosciences, catalog #12003-1000M). These cells were grown as suspension cultures, maintained at 37° C. in a humidified atmosphere containing 5% carbon dioxide. Cells were cultured for fewer than 10 passages prior to use. Cells were harvested at approximately 2 million cells/mL, and centrifuged at ˜800×g for 5 minutes at 4° C. and then resuspended in a 1:1 mixture of cold Hank's balanced salt solution (HBSS) and Matrigel™ (Mediatech Inc., catalog #21-021-CV; BD Biosciences, catalog #354234, respectively) at a concentration of 50 million cells/mL for implantation subcutaneously (injection volume of 0.2 mL). Alternatively, for the disseminated disease model, cells were prepared only in cold HBSS at a concentration of 100 million cells/mL for intravenous (i.v.) implantation via the tail vein (injection volume of 0.1 mL).\nCompound IIa and SB-715992 (free base) were formulated in 20% Captisol for a dose volume of 8 mL/kg. Doses were adjusted to each animal's body weight.\nFor the efficacy evaluation in the disseminated disease model, 10 million cells in HBSS were injected i.v. via the tail vein in a total volume of […]. Forty mice were randomized and enrolled on study 10 days post-implant, with a mean photon count in the leg bones (right+left) of approximately 9×10^5 photons/second, as determined by bioluminescence imaging. Approximately 10 minutes prior to imaging, mice were injected i.p. with 150 mg/kg luciferin (Xenogen Corporation, Alameda, Calif.), followed by anesthetization with isoflurane. Photon emission was measured using a charge coupled device camera in the IVIS imaging system (Xenogen Corporation). Briefly, a gray-scale image of the mice was captured, followed by an overlay of a bioluminescence map representing the spatial distribution of photons detected from cleaved luciferin in the cancer cells expressing luciferase. Signal intensity was quantified using a customized version of the IGOR Pro version 4.09A Software (WaveMetrics, Inc., Lake Oswego, Oreg.) called Living Image version 2.50.2 (Xenogen). The sum of all detected photon counts from the right+left legs were determined. Bioluminescence of cancer cells in the animals was measured by imaging on designated days until the first mice developed hind limb paralysis due to disease burden, the main end point for when to humanely euthanize mice. The day of euthanasia for each mouse was recorded, and the remaining percentage of mice surviving was plotted over time (Kaplan-Meier survival analysis). P values were calculated using the log-rank test (GraphPad Prism 4.0 software) to assess differences between treated and control groups (p<0.05 was considered significant). […] Data analysis was as described above."}, "tumor cell lines": {"system": "tumor cell lines", "assay": "Inhibition of cellular proliferation, CellTiter-Glo, 72 hours, all cell lines tested", "type": "cell-based", "details": "72 hours of continuous compound exposure", "description": "Cell lines used were as follows: HCT-116 (National Cancer Institute's DCTF Tumor Repository, catalog #NCI-502568, Rockville, Md.), HCT-15 (National Cancer Institute's DCTF Tumor Repository, catalog#NCI-502711, Rockville, Md. available from American Type Tissue Collection, catalog #CLL-225), KB-3-1 (available from DSMZ, Deutsche Sammlung von Mikroorganismen und Zellkulturen GmbH (German Collection of Microorganisms and Cell Cultures—catalog number ACC 158), KB-V1 (available from DSMZ—catalog number ACC 149), AGS (available from American Type Culture Collection, Manassas Va., catalog number CRL-1739™), N87 (available from American Type Culture Collection, Manassas Va., catalog number CRL-5822), Hel92.1.7 (available from American Type Culture Collection, Manassas Va., catalog number TIB 180), K562 (available from American Type Culture Collection, Manassas Va., catalog number CRL-243™), MV4; 11 (American Tissue Culture Collection, Manassas Va., catalog number CRL-9591) and U937 (available from American Type Culture Collection, Manassas Va., catalog number CRL-1593.2).\nCells were plated in 96-well plates at densities of about 500 cells per well of a 96-well plate and allowed to grow for 24 hours. […] The amount of luminescence was determined for each well using a Wallac Trilux plate reader, which correlates with the number of cells per well. […]"}}, "note": "Marks after values point to notes of the source that are not given here.", "data": [{"smiles": "CC(C)(C)[C@H](c1nc(-c2cc(F)ccc2F)cn1Cc1ccccc1)N(CC[C@H](N)CF)C(=O)CO", "note": "[Compound IIa]", "values": [{"measurement": "T/C, Day 13 (%)", "setting": "[1]; 0.25 mg/kg, q4d × 3, i.v", "result": 15, "unit": "%"}, {"measurement": "Δ Tumor Bioluminescence, Day 13", "setting": "[1]; 0.25 mg/kg, q4d × 3, i.v", "result": "2.2 × 10^7 ± 1.1 × 10^6 photons/sec"}, {"measurement": "Mean Day of Survival", "setting": "[1]; 0.25 mg/kg, q4d × 3, i.v., listed as COMPOUND IIa", "result": "29** day"}, {"measurement": "Mean Day of Survival", "setting": "[1]; 0.25 mg/kg, q4d × 3, i.v., listed as compound IIa", "result": 29, "unit": "days"}, {"measurement": "T/C, Day 13 (%)", "setting": "[1]; 0.5 mg/kg, q4d × 3, i.v", "result": "0.7* %"}, {"measurement": "Δ Tumor Bioluminescence, Day 13", "setting": "[1]; 0.5 mg/kg, q4d × 3, i.v", "result": "1.1 × 10^6 ± 5.8 × 10^5 photons/sec"}, {"measurement": "Mean Day of Survival", "setting": "[1]; 0.5 mg/kg, q4d × 3, i.v., listed as COMPOUND IIa", "result": "35** day"}, {"measurement": "Mean Day of Survival", "setting": "[1]; 0.5 mg/kg, q4d × 3, i.v., listed as compound IIa", "result": 35, "unit": "days"}, {"measurement": "Regression, Day 13 (%)", "setting": "[1]; 1 mg/kg, q4d × 3, i.v.", "result": 47, "unit": "%"}, {"measurement": "Δ Tumor Bioluminescence, Day 13", "setting": "[1]; 1 mg/kg, q4d × 3, i.v.", "result": "−4.3 × 10^5 ± 1.7 × 10^5 photons/sec"}, {"measurement": "Mean Day of Survival", "setting": "[1]; 1 mg/kg, q4d × 3, i.v., listed as COMPOUND IIa", "result": "52** day"}, {"measurement": "Mean Day of Survival", "setting": "[1]; 1 mg/kg, q4d × 3, i.v., listed as compound IIa", "result": 52, "unit": "days"}, {"measurement": "GI50", "setting": "tumor cell lines", "result": "0.1 to 6.5", "unit": "nM"}]}]}
